Measured values reported in patent publication US11999747B2, “Furoquinolinediones as inhibitors of TDP2” (THE UNITED STATES OF AMERICA, AS REPRESENTED BY THE …, priority 2015, dated 2024).

Legend:
[1] = target: T1, recombinant human TDP2 (Homo sapiens, UniProt O95551); assay: Recombinant Tdp2 assay (gel-based, 18-mer ssDNA substrate); type: biochemical; settings: recombinant human TDP2, 25 pM, 15 min, room temperature; read-out: REC TDP2
T1 sequence (O95551 1-362): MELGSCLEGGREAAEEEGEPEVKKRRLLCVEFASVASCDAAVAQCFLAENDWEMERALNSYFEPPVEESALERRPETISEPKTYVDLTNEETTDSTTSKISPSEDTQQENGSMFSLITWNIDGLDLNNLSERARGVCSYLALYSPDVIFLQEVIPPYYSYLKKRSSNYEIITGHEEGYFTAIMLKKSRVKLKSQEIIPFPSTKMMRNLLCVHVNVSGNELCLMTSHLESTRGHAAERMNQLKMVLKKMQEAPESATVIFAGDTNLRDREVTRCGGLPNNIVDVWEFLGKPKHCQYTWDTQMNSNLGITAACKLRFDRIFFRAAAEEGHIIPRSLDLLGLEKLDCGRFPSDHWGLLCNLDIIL
Experimental: TDP2 reactions were carried out as described previously (Example 52) with the following modifications. The 18-mer single-stranded oligonucleotide DNA substrate (α^32P-cordycepin-3′-labeled) was incubated at 1 nM with 25 pM recombinant human TDP2 in the absence or presence of inhibitor for 15 min at room temperature in a buffer containing 50 mM Tris-HCl, pH 7.5, 80 mM KCl, 5 mM MgCl2, 0.1 mM EDTA, 1 mM DTT, 40 μg/mL BSA, and 0.01% Tween 20. Reactions were terminated and treated similarly to WCE and recombinant TDP1 reactions (see Examples 52 and 53).
(§1) All compounds were prepared by the methods shown in Examples 1 to 50. Routine changes in starting materials and reaction conditions, readily apparent to those of skill in the art, were used to make the particular compounds disclosed in Table 1. […] A standard Tdp2 inhibition assay, such as the assay of Example 53, is used to determine the IC50's for the compounds. LC methods are given in the General Methods section.

[2] = target: T2, human TDP2 (hTDP2) (Homo sapiens, UniProt O95551); assay: Whole cell extract Tdp2 assay (DT40 TDP1-/- cells complemented with human TDP2); type: biochemical; settings: whole cell extract 4 μg/mL of DT40 cells expressing hTDP2, 15 min, room temperature; read-out: WCE hTDP2
T2 construct: expressed in transfected cells; host or cells: DT40 (chicken) TDP1-/- knockout cells complemented with human TDP2; whole cell extract
T2 sequence (O95551 1-362): T1 sequence (O95551 1-362)
Experimental: DT40 knockout cells (1×10^7) for Tdp1 (TDP1−/−) complemented with human TDP2 (hTDP2) were collected, washed, and centrifuged. Cell pellets were then lysed and stored similarly to hTDP1 extracts (see above). The 18-mer single-stranded oligonucleotide was incubated at 1 nM with 4 μg/mL of whole cell extracts in the absence or presence of inhibitor for 15 min at room temperature in the WCE buffer containing 50 mM Tris HCl, pH 7.5, 80 mM KCl, 5 mM MgCl2, 2 mM EDTA, 1 mM DTT, 40 μg/mL BSA, and 0.01% Tween-20. Reactions were terminated by the addition of 1 volume of gel loading buffer [99.5% (v/v) formamide, 5 mM EDTA, 0.01% (w/v) xylene cyanol, and 0.01% (w/v) bromophenol blue]. Samples were then treated and run similarly to the hTDP1 whole cell extract (Example 51).
as §1

Compound	IC50 [1] [µM]	IC50 [2] [µM]
Cc1oc2c(c1C(=O)Oc1ccc(Cl)cc1)C(=O)c1ncccc1C2=O [Compound 27]	1 to 12	1 to 12
COP(=O)(CCOC(=O)c1c(C)oc2c1C(=O)c1ncccc1C2=O)OC [Compound 22]	1 to 12	12 to 37
